{"source": "patent US20240049719A1", "about": "“ANTIMICROBIAL COATING” (HECOSOL GMBH, priority 2017, published 2024)", "key": {"E. coli": {"test_system": "E. coli", "experiment": "JIS test (JIS Z 2801 / ISO 22196) on coated Petri dishes, germ reduction of E. coli", "type": "cell-based", "from_the_text": "The reduction factor RL is used to quantify the anti-microbial effectiveness. This reduction factor RL can be represented by the following mathematical relationship: RL=log (A/B). Here, A corresponds to an average value of so-called colony forming units (CFU) per ml on a reference surface without anti-microbial coating. Consequently, B corresponds to an average value of colony forming units (CFU) per ml on a reference surface with an anti-microbial coating according to the present invention. The internationally recognized JIS test (Japanese Industrial Standard Test, JIS Z 2801), which corresponds to ISO standard 22196 in Europe, is used for objective assessment of the germ reducing effect of surfaces. Thereby, Petri dishes coated with the test substance are first wetted with a germ suspension (e.g. […] Here, the experiments can be performed in the dark or under defined lighting conditions (e.g. by means of LED light at 1600 lux). At the end of the incubation, the number of surviving germs is determined and a reduction factor RL is calculated as described above."}, "[1]": {"test_system": "Artemia nauplii (brine shrimp)", "conditions": "in vivo", "from_the_text": "(§1) Therefore, the toxicological behaviour of this coating towards daphnia (water flea) as well as Artemia nauplii (brine shrimp) was investigated. […] As a result, these animals show the same vitality in the coated plates as in the uncoated ones."}, "daphnia (water flea)": {"test_system": "daphnia (water flea)", "conditions": "in vivo", "from_the_text": "as §1"}, "[2]": {"type": "physicochemical", "from_the_text": "Furthermore, it is shown that the structure of the deposited TiO2*AgNO3 matrix is stable against 1000-times wiping with an anti-septic cloth (ethanol, benzalkonium chloride)."}, "Staphylococcus aureus": {"test_system": "Staphylococcus aureus", "experiment": "JIS test (JIS Z 2801 / ISO 22196) against Staphylococcus aureus", "type": "cell-based", "conditions": "in-vitro JIS test, 1600 lux", "method": "The internationally recognized JIS test (Japanese Industrial Standard Test, JIS Z 2801), which corresponds to ISO standard 22196 in Europe, is used for objective assessment of the germ reducing effect of surfaces.\nThereby, Petri dishes coated with the test substance are first wetted with a germ suspension (e.g. E. coli or Staphylococcus aureus), covered with a foil and then incubated at 35° C. and 95% humidity.\nHere, the experiments can be performed in the dark or under defined lighting conditions (e.g. by means of LED light at 1600 lux).\nAt the end of the incubation, the number of surviving germs is determined and a reduction factor RL is calculated as described above.\nThe anti-microbial effectiveness of this coating 10′ against the Staphylococcus aureus germ is shown in FIG. 14a after an incubation period of 24 hours under defined light conditions of about 1600 lux with RL=4.1."}}}
{"compound": "[O]=[W](=[O])([O-])[O-].[Zn+2]", "note": "[ZnWO4, zinc tungstate]", "values": [{"measurement": "anti-microbial effectiveness (class in words)", "setting": "E. coli; within/after 24 h, 1600 lux", "value": "strong"}]}
{"compound": "tungsten molybdate", "values": [{"measurement": "anti-microbial effectiveness (class in words)", "setting": "E. coli; after 1 h, 1600 lux", "value": "no antimicrobial effectiveness"}, {"measurement": "anti-microbial effectiveness (class in words)", "setting": "E. coli; within/after 24 h, 1600 lux", "value": "no antimicrobial effectiveness"}]}
{"compound": "ammonium heptamolybdate [(NH4)6Mo7O24]", "values": [{"measurement": "reduction factor RL (anti-microbial effectiveness)", "setting": "E. coli; 1 h incubation, 1600 lux", "value": 1.4}, {"measurement": "reduction factor RL", "setting": "E. coli; 24 h incubation, 1600 lux", "value": 4.3}, {"measurement": "anti-microbial effectiveness (class in words)", "setting": "E. coli; after 1 h, 1600 lux", "value": "significant"}]}
{"compound": "TiO2*AgNO3", "values": [{"measurement": "vitality of animals in coated vs uncoated plates", "setting": "[1]", "value": "same vitality"}, {"measurement": "vitality of animals in coated vs uncoated plates", "setting": "daphnia (water flea)", "value": "same vitality"}, {"measurement": "stability of deposited matrix structure against wiping", "setting": "[2]", "value": "stable"}]}
{"compound": "[O]=[Mo](=[O])([O-])[O-].[Zn+2]", "note": "[ZnMoO4, zinc molybdate]", "values": [{"measurement": "effectiveness (in words)", "setting": "Staphylococcus aureus", "value": "germ reducing effectiveness"}, {"measurement": "reduction factor RL", "setting": "E. coli; 5 min incubation, in the dark", "value": 3.2}]}
{"compound": "[Ag+].[Ag+].[O]=[Mo](=[O])([O-])[O-]", "note": "[Ag2MoO4, silver molybdate]", "values": [{"measurement": "anti-microbial effectiveness (class in words)", "setting": "E. coli; within/after 24 h, 1600 lux", "value": "strongly germ-reducing"}]}
{"compound": "O=[N+]([O-])[O-].[Ag+]", "note": "[AgNO3, silver nitrate]", "values": [{"measurement": "reduction factor RL", "setting": "E. coli; 5 min incubation, in the dark", "value": 4.3}, {"measurement": "reproducible RL values (range over repeated JIS tests)", "setting": "E. coli; JIS test", "value": "4.0-4.3"}]}
{"compound": "[O]=[W](=[O])=[O]", "note": "[tungsten oxide]", "values": [{"measurement": "anti-microbial effectiveness (class in words)", "setting": "E. coli; within/after 24 h, 1600 lux", "value": "strong"}]}
{"compound": "[Na+].[Na+].[O]=[Mo](=[O])([O-])[O-]", "note": "[Na2MoO4, sodium molybdate]", "values": [{"measurement": "anti-microbial effectiveness (class in words)", "setting": "E. coli; within/after 24 h, 1600 lux", "value": "no anti-microbial effect"}]}
